These are literature values, as cited in patent publication US20070196518A1, “Composition and Method for Mitigating a Negative Effect of Alcohol Consumption” (priority 2005, published 2007).

The conditions of the data set: on average, in subjects who consumed alcohol.

On to `Cc1ncc(CO)c(CO)c1O` [Vitamin B6, Pyridoxine], for which the “decrease in the number of hangover symptoms” value is 50%.
